According to US8507488B2, “Fused nitrogen containing heterocycles and compositions thereof as kinase inhibitors” (IRM LLC, priority 2008, dated 2013):
Read-outs that look alike come from different tables or passages of the source.

Assays:
[1] = biological target: T1, full length rTrkA and mNGF (Rattus norvegicus, UniProt P35739); experiment: Inhibition of proliferation of Ba/F3 cells co-expressing full length rTrkA and mNGF (BaF3/TrkA-NFG); format: cell-based; settings: BaF3 TRKA-NGF cells, CTG readout
T1 construct: co-expressing full length rTrkA and mNGF; expressed in transfected cells; host or cells: Ba/F3 cells
T1 sequence (P35739 33-799): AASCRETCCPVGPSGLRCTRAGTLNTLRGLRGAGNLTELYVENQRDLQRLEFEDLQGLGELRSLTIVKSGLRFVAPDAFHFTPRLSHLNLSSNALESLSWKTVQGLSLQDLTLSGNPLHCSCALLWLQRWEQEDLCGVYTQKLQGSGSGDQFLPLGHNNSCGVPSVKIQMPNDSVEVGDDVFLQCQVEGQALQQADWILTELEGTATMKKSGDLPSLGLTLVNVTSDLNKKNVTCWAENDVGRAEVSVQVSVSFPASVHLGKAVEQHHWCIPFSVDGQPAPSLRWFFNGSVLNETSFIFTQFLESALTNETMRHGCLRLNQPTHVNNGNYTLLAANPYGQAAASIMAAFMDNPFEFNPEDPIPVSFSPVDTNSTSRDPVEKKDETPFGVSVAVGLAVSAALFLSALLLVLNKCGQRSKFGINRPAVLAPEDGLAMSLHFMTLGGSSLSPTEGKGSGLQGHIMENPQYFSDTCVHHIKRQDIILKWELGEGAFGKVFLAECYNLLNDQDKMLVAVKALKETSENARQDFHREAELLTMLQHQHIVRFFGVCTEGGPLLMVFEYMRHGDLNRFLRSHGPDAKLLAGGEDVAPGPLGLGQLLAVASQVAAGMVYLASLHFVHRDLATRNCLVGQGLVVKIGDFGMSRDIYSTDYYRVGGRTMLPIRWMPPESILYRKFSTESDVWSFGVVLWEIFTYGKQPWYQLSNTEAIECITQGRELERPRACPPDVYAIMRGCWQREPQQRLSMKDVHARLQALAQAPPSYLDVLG
T1 sequence (P01139 122-241 partner): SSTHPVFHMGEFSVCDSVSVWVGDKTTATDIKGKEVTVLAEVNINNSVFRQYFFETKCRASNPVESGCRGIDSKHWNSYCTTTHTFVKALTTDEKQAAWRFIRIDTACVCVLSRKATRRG

KM12 luc = KM12 luc cell proliferation assay (Table 8); format: cell-based; settings: KM12 luc cells; read-out: KM12 luc IC 50
Tel-TrkA = biological target: T2, Tel-TrkA (Homo sapiens, UniProt P04629); experiment: Inhibition of proliferation of Ba/F3 cells expressing Tel-TrkA (BaF3/Tel-TrkA, luciferase/Bright Glo readout); format: cell-based; settings: read-out: Ba/F3 Tel-TrkA IC 50
T2 construct: dimerization domain of Tel (ETV6) transcription factor (fusion partner, human ETV6 P41212); expressed in transfected cells; host or cells: luciferase expressing Ba/F3 murine hematopoietic progenitor cells; the other entry of the earlier key: ETV6 (P41212, Transcription factor ETV6)
T2 sequence (P04629 510-796 limits assumed): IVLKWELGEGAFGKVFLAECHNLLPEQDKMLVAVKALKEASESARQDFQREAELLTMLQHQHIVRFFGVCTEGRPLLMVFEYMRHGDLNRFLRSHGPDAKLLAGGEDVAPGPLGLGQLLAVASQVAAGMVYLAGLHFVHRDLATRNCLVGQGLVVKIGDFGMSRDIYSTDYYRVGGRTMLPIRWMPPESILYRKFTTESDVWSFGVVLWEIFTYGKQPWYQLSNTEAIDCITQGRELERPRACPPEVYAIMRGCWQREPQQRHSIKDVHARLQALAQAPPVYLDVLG
Description: (§1) Test compounds were dissolved in DMSO (10 mM) and transferred into 1.4 mL flat bottom or V-shaped Matrix tubes carrying a unique 2D matrix chip by individual compound hubs. The numbers of these chips were distinctively linked to the individual compound identification numbers. The stock solutions were stored at −20° C. if not used immediately. For the test procedure the vials were defrosted and identified by a scanner whereby a working sheet is generated that guides the subsequent working steps.
(§2) Compound dilutions were made in 384 well plates. This format enabled the assay of maximally 28 individual test compounds at 12 concentrations (single points) including 2 reference compounds. The dilution protocol included the production of pre-dilution plates, master plates and assay plates: • Compound plates: 30 μL of individual compound (10 mM) DMSO solution including standard compound were transferred into columns 1 and 13 of a 384 well plate. 20 μL of DMSO were added to the rest of the wells and the compounds were serially diluted (1:3) by transferring 10 μL from a well in column 1 or 13 to the next well in column 2 or 14 respectively and successively with the help of a Minitrack robot. • Assay plates: Identical assay plates were then prepared by adding […] each of compound dilutions of the compound plates into 384-well “assay plates”. In the following the compounds were mixed with 50 μL of assays components (cells or enzyme) and tested for their inhibitory activity.
(§3) Compounds of Formula (I) were tested for their antiproliferative effect on Ba/F3 cells expressing either Tel-TrkA, Tel-TrkB or Tel-TrkC and an additional panel of 34 selected diverse kinases activated by fusion to the dimerizing partners Bcr or Tel (Abl, A1K, BMX, EphA3, EphB2, FGFR2, FGFR3, FGFR4, FGR, FLT1, FLT3, FLT4, FMS, IGF1R, InsR, JAK1, JAK2, JAK3, KDR, Kit, Lck, Lyn, MER, MET, PDGFRb, RET, RON, Ros-1, Src, Aurora, TIE2, TYK2, Tie1, ZAP70). The antiproliferative effect of these compounds on the different cell lines and on the non transformed cells were tested at 12 different concentrations of 3-fold serially diluted compounds in 384 well plates as described above (in media lacking IL3). The IC50 values of the compounds the different cell lines were determined from dose response curves.
(§4) The cell line used is the luciferase expressing Ba/F3 murine hematopoietic progenitor cell line transformed with human Tel-TrkA, Tel-TrkB or Tel-TrkC cDNAs (Ba/F3 EN A/B/C). These cells maintained in RPMI/10% fetal bovine serum (RPMI/FCS) supplemented with penicillin 50 mg/mL, streptomycin 50 mg/mL and L-glutamine […]. Untransformed Ba/F3 cells were similarly maintained with the addition 5 ng/ml of murine recombinant IL3. 50 μl of a Ba/F3 or Ba/F3 EN A/B/C cell suspension were plated in Greiner 384 well microplates (white)) at a density of 2000 cells per well. […] The cells were incubated for 48 hours at 37° C., 5% CO2. 25 μl of Bright Glo® (Promega) luciferase substrate is added to each well. The emited luminiscence is quantified using the ACQUEST™ luminescence system (Molecular Devices). IC50 values were calculated by linear regression analysis of the percentage inhibition of each compound at 12 concentrations.

Tel-TrkB = biological target: T3, Tel-TrkB (Homo sapiens, UniProt Q16620); experiment: Inhibition of proliferation of Ba/F3 cells expressing Tel-TrkB (BaF3/Tel-TrkB); format: cell-based; settings: Ba/F3 Tel-TrkB cells; read-out: Ba/F3 Tel-TrkB IC 50
T3 construct: dimerization domain of Tel (ETV6) transcription factor (fusion partner, human ETV6 P41212); expressed in transfected cells; host or cells: luciferase expressing Ba/F3 murine hematopoietic progenitor cells; the other entry of the earlier key: ETV6 (P41212, Transcription factor ETV6)
T3 sequence (Q16620 538-822 limits assumed): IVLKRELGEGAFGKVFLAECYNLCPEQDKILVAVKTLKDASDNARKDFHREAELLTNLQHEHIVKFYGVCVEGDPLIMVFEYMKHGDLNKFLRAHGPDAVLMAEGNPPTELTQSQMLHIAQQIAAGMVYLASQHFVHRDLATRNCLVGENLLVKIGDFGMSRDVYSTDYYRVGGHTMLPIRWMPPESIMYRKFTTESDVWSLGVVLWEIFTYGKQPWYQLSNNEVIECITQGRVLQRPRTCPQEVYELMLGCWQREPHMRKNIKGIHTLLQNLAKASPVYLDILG
Description: as §1, §2, §3, §4

parental BaF3 cells = experiment: Proliferation of parental (untransformed) Ba/F3 cells maintained with IL3; format: cell-based, murine; settings: read-out: Ba/F3 IC 50
Description: as §1, §2
The cell line used is the luciferase expressing Ba/F3 murine hematopoietic progenitor cell line transformed with human Tel-TrkA, Tel-TrkB or Tel-TrkC cDNAs (Ba/F3 EN A/B/C). These cells maintained in RPMI/10% fetal bovine serum (RPMI/FCS) supplemented with penicillin 50 mg/mL, streptomycin 50 mg/mL and L-glutamine […]. Untransformed Ba/F3 cells were similarly maintained with the addition 5 ng/ml of murine recombinant IL3. 50 μl of a Ba/F3 or Ba/F3 EN A/B/C cell suspension were plated in Greiner 384 well microplates (white)) at a density of 2000 cells per well. 50 nl of serially diluted test compound (10-0.0001 mM in DMSO solution) is added to each well. The cells were incubated for 48 hours at 37° C., 5% CO2. 25 μl of Bright Glo® (Promega) luciferase substrate is added to each well. The emited luminiscence is quantified using the ACQUEST™ luminescence system (Molecular Devices). IC50 values were calculated by linear regression analysis of the percentage inhibition of each compound at 12 concentrations.

[2] = Mus musculus, BaF3, parental Ba/F3 cells

SMILES | BaF3 TRKA-NGF CTG IC 50 [1] [nM] | IC50 (KM12 luc) [nM] | IC50 (Tel-TrkA) [nM] | IC50 (Tel-TrkB) [nM] | IC50 (parental BaF3 cells; [2]) [nM] | IC50 (parental BaF3 cells; parental Ba/F3 cells) [nM]
CN(C)C(=O)CN1CCN(c2ccc(-c3cnc4ccc(N5CCOCC5c5cccc(F)c5)nn34)cc2C#N)CC1 (stereo not shown) [Table 2-Compound 8] | 29 | 5.2 | 1.6 | 2.2 | > 10000 | –
Fc1cccc(C2COCCN2c2ccc3ncc(-c4cccc(OC5CCNCC5)n4)n3n2)c1 (stereo not shown) [Table 2-Compound 18] | 56 | 22 | 36 | 36 | > 10000 | –
CC(=O)N[C@@H]1CCN(c2cccc(-c3cnc4ccc(N5CCCC5c5cccc(F)c5)nn34)n2)C1 (stereo partly shown) [Table 7-Compound 119] | 4 | 2 | 3 | 3 | > 11000 | –
OC1CCN(c2cccc(-c3cnc4ccc(N5CCOCC5c5cccc(F)c5)nn34)n2)CC1 (stereo not shown) [Table 7-Compound 1] | 30 | 7.6 | 17 | 17 | > 10000 | –
O=C(O)C1CN(c2cccc(-c3cnc4ccc(N5CCCC5c5cccc(F)c5)nn34)n2)C1 (stereo not shown) [Table 7-Compound 116] | 8 | 3 | 3 | 3 | > 9100 | –
N#Cc1cc(-c2cnc3ccc(N4CCOCC4c4cccc(F)c4)nn23)ccc1F (stereo not shown) [Table 2-Compound 6] | 78 | 56 | 58 | 44 | > 10000 | –
N#Cc1ccc(-c2cnc3ccc(N4CCOCC4c4cccc(F)c4)nn23)cc1 (stereo not shown) [Table 2-Compound 1] | – | 7 | – | – | > 9690 | –
CCN(CC)CCNc1cccc(-c2cnc3ccc(N4CCCC4c4cccc(F)c4)nn23)n1 (stereo not shown) [Table 4-Compound 14] | 45.2 | 30.8 | 21 | 14.9 | 5720 | –
OC1CCN(c2ccc(-c3cccc(-c4cnc5ccc(N6CCCC6c6cccc(F)c6)nn45)n3)cn2)CC1 (stereo not shown) [Table 7-Compound 61] | 9.8 | 4 | 8.1 | 7.9 | > 10000 | –
O=C1CN(c2cccc(-c3cnc4ccc(N5CCCC5c5cccc(F)c5)nn34)n2)CCN1 (stereo not shown) [Table 4-Compound 5] | 2.2 | 1.2 | 0.7 | 0.4 | > 10000 | –
Fc1cccc(C2COCCN2c2ccc3ncc(-c4cccc(N5CC6CC5CN6)n4)n3n2)c1 (stereo not shown) [Table 7-Compound 9] | 53 | 14 | 59 | 63 | > 10000 | –
OCC(O)CNc1cccc(-c2cnc3ccc(N4CCCC4c4cccc(F)c4)nn23)n1 (stereo not shown) [Table 4-Compound 16] | 5.2 | 2.2 | 6.8 | 1.5 | > 10000 | –
CC1CN(Cc2cccc(-c3cnc4ccc(N5CCCC5c5cccc(F)c5)nn34)n2)CC(C)O1 (stereo not shown) [Table 3-Compound 44] | 1200 | – | 1120 | 1140 | > 10000 | –
OCc1cccc(-c2cnc3ccc(N4CCCC4c4cccc(F)c4)nn23)n1 (stereo not shown) [Table 7-Compound 2] | 31 | 26 | 18 | 13 | > 10000 | –
OC1CCN(c2nccc(-c3cccc(-c4cnc5ccc(N6CCCC6c6cccc(F)c6)nn45)n3)n2)CC1 (stereo not shown) [Table 7-Compound 57] | 20 | – | 20 | 20 | 6900 | –
CC(F)C(=O)N(C)C1CCN(c2cccc(-c3cnc4ccc(N5CCCC5c5cccc(F)c5)nn34)n2)C1 (stereo not shown) [Table 7-Compound 201] | 20 | 10 | 13 | 15 | > 11000 | –
CC(C)NC(=O)CN1CCN(c2cccc(-c3cnc4ccc(N5CCCC5c5cccc(F)c5)nn34)n2)CC1 (stereo not shown) [Table 4-Compound 32] | 2.6 | – | 1.4 | 1.5 | – | 4990
Cc1c[nH]c(C2CCN(c3cccc(-c4cnc5ccc(N6CCOCC6c6cccc(F)c6)nn45)n3)CC2)n1 (stereo not shown) [Table 7-Compound 143] | 31 | – | 34 | 53 | > 11000 | –
N#Cc1cc(-c2cnc3ccc(N4CCOCC4c4cccc(F)c4)nn23)ccc1N1CCC(O)CC1 (stereo not shown) [Table 2-Compound 7] | 550 | 140 | 83 | 230 | > 10000 | –
Fc1cccc(C2COCCN2c2ccc3ncc(-c4ccccn4)n3n2)c1 (stereo not shown) [Table 2-Compound 4] | 17 | 8.3 | 8.6 | 5.8 | > 10000 | –
OCCNc1ncc(-c2cnc3ccc(N4CCCC4c4cccc(F)c4)nn23)cn1 (stereo not shown) [Table 7-Compound 171] | 238 | – | 224 | 129 | > 11000 | –
